{
  "source": "patent US20250230193A1",
  "about": "“CYCLIC COMPOUND HAVING SELECTIVE KRAS INHIBITORY EFFECT ON HRAS AND NRAS” (CHUGAI SEIYAKU KABUSHIKI KAISHA, priority 2022, published 2025)",
  "key": {"[1]": {"molecular_target": "GDP-bound HRAS wild-type protein (Homo sapiens, UniProt P01112)", "sequence (P01112 whole entry)": "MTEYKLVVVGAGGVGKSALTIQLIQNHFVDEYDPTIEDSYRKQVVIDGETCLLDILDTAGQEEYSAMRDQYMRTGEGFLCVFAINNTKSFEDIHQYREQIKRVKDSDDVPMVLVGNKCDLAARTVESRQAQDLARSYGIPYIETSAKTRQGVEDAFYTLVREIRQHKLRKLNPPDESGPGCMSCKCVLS", "test": "Binding to HRAS by surface plasmon resonance (SPR), Single Cycle Kinetics", "settings": "for HRAS/KRAS (ratio of KD value with respect to HRAS to KD value with respect to KRAS) / HRAS/KRAS (ratio of KD value for HRAS to KD value for KRAS): GDP-bound HRAS wild-type vs GDP-bound KRAS wild-type, SPR"}, "[2]": {"molecular_target": "GDP-bound NRAS wild-type protein (Homo sapiens, UniProt P01111)", "sequence (P01111 whole entry)": "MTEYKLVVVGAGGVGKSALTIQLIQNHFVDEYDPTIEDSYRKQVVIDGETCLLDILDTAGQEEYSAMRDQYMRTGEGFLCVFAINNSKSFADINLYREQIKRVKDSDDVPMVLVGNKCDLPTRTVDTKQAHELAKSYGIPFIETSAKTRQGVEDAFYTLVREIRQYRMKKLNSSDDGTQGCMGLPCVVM", "test": "Binding to NRAS by surface plasmon resonance (SPR), Single Cycle Kinetics", "settings": "for NRAS/KRAS (ratio of KD value with respect to NRAS to KD value with respect to KRAS) / NRAS/KRAS (ratio of KD value for NRAS to KD value for KRAS): GDP-bound NRAS wild-type vs GDP-bound KRAS wild-type, SPR"}},
  "note": "Where a SMILES comes first, the peptide text is derived from it. Bridges are numbered along the chain shown (N, C = ends). [ ]: non-standard residue; d: D form. The star is where a group is joined. hPhe(3-Cl-4-CF3) = N[C@@H](CCc1ccc(C(F)(F)F)c(Cl)c1)C(=O)O; NPrPhe(4-CF3) = CCCN[C@@H](Cc1ccc(C(F)(F)F)cc1)C(=O)O; NMeGly(cPent) = CN[C@H](C(=O)O)C1CCCC1; Ac4c(3,3-Me2) = CC1(C)CC(N)(C(=O)O)C1; NMeD = CN[C@@H](CC(=O)O)C(=O)O; NMeL = CN[C@@H](CC(C)C)C(=O)O; Morpholide = C1CN(*)CCO1; Sar = CNCC(=O)O; Propyl = CCC*",
  "data": [
    {"smiles": "CCO[C@@H]1C[C@H]2C(=O)NC3(CC(C)(C)C3)C(=O)N(C)[C@@H](C(CC)CC)C(=O)N(C)[C@H](C(=O)N(C)C)CC(=O)N(C)[C@H]3CCC/C=C/c4ccc(cc4)C[C@@H](C(=O)N(C)CC(=O)N[C@@H](CCc4cc(F)c(C(F)(F)F)c(F)c4)C(=O)N2C1)N1CC/C=C\\C[C@@H](C1=O)N(C)C(=O)CN(C)C(=O)[C@H]([C@@H](C)CC)NC3=O", "note": "[PP2575]", "values": [
      {"measurement": "HRAS/KRAS (ratio of KD value with respect to GDP-bound HRAS wild-type protein to KD value with respect to KRAS)", "setting": "[1]; KD ratio HRAS/KRAS, class symbols", "result": "A (a compound having 10 or more and less than 20 is denoted as A)"},
      {"measurement": "NRAS/KRAS (ratio of KD value with respect to GDP-bound NRAS wild-type protein to KD value with respect to KRAS)", "setting": "[2]; KD ratio NRAS/KRAS, class symbols", "result": "A (a compound having 10 or more and less than 20 is denoted as A)"}
    ]},
    {"smiles": "CCO[C@@H]1C[C@H]2C(=O)NC3(CCC3)C(=O)N(C)[C@@H](C3CCCC3)C(=O)N(C)[C@H](C(=O)N(C)C)CC(=O)N(C)[C@@H](CC(F)F)C(=O)N[C@@H]([C@@H](C)CC)C(=O)N(C)CC(=O)N(C)[C@H]3C/C=C\\CCN(C3=O)[C@@H](Cc3ccc(C(F)(F)F)cc3)C(=O)N(C)CC(=O)N[C@@H](CCc3cc(F)c(C(F)(F)F)c(F)c3)C(=O)N2C1", "note": "[PP1120]", "values": [
      {"measurement": "HRAS/KRAS (ratio of KD value with respect to HRAS to KD value with respect to KRAS)", "setting": "[1]; KD ratio", "result": "A (a compound having 10 or more and less than 20 is denoted as A)"},
      {"measurement": "NRAS/KRAS (ratio of KD value with respect to NRAS to KD value with respect to KRAS)", "setting": "[2]; KD ratio", "result": "A (a compound having 10 or more and less than 20 is denoted as A)"}
    ]},
    {"smiles": "CC[C@H](C)[C@@H]1NC(=O)[C@H](CC)N(C)C(=O)C[C@@H](C(=O)N(C)C)N(C)C(=O)[C@H](C2CCCC2)N(C)C(=O)C2(CCCC2)N(C)C(=O)[C@@H]2C[C@@H](C)CN2C(=O)[C@H](CCc2cc(F)c(C(F)(F)F)c(F)c2)NC(=O)CN(C)C(=O)[C@H](Cc2ccc(C)cc2)N2CC/C=C\\C[C@@H](C2=O)N(C)C(=O)[C@@H]2CCCN2C1=O", "note": "[PP1814]", "values": [
      {"measurement": "HRAS/KRAS (ratio of KD value for HRAS to KD value for KRAS)", "setting": "[1]; KD ratio", "result": "A (a compound having 10 or more and less than 20 is denoted as A)"},
      {"measurement": "NRAS/KRAS (ratio of KD value for NRAS to KD value for KRAS)", "setting": "[2]; KD ratio", "result": "A (a compound having 10 or more and less than 20 is denoted as A)"}
    ]},
    {"smiles": "CCCO[C@H](C)[C@@H]1NC(=O)[C@H](CC(C)C)N(C)C(=O)C[C@@H](C(=O)N2CCOCC2)N(C)C(=O)[C@H](C2CCCC2)N(C)C(=O)C2(CC(C)(C)C2)NC(=O)[C@@H]2CCCN2C(=O)[C@H](CCc2ccc(C(F)(F)F)c(Cl)c2)NC(=O)CN(C)C(=O)[C@H](Cc2ccc(C(F)(F)F)cc2)N(CCC)C(=O)CN(C)C(=O)CN(C)C1=O", "note": "[PP1965] ([NMeL]T(Propyl)[Sar][Sar][NPrPhe(4-CF3)][Sar][hPhe(3-Cl-4-CF3)]P[Ac4c(3,3-Me2)][NMeGly(cPent)][NMeD]-Morpholide; lactam N-11)", "values": [
      {"measurement": "HRAS/KRAS (ratio of KD value for HRAS to KD value for KRAS)", "setting": "[1]; KD ratio", "result": "B (a compound having 3 or more and less than 10 is denoted as B)"},
      {"measurement": "NRAS/KRAS (ratio of KD value for NRAS to KD value for KRAS)", "setting": "[2]; KD ratio", "result": "B (a compound having 3 or more and less than 10 is denoted as B)"}
    ]},
    {"smiles": "CCO[C@@H]1C[C@H]2C(=O)NC3(CCC3)C(=O)N(C)[C@@H](C3CCCC3)C(=O)N(C)[C@H](C(=O)N(C)C)CC(=O)N(C)[C@@H](CC)C(=O)N[C@@H]([C@@H](C)CC)C(=O)N3CCC[C@H]3C(=O)N(C)[C@H]3C/C=C\\CCN(C3=O)[C@@H](Cc3ccc(C(F)(F)F)cc3)C(=O)N(C)CC(=O)N[C@@H](CCc3cc(F)c(C(F)(F)F)c(F)c3)C(=O)N2C1", "note": "[PP1056]", "values": [
      {"measurement": "HRAS/KRAS (ratio of KD value with respect to HRAS to KD value with respect to KRAS)", "setting": "[1]; KD ratio", "result": "A (a compound having 10 or more and less than 20 is denoted as A)"},
      {"measurement": "NRAS/KRAS (ratio of KD value with respect to NRAS to KD value with respect to KRAS)", "setting": "[2]; KD ratio", "result": "A (a compound having 10 or more and less than 20 is denoted as A)"}
    ]},
    {"smiles": "CCC[C@H]1C(=O)N[C@@H]([C@@H](C)CC)C(=O)N(C)CC(=O)N(C)[C@H]2C/C=C\\CCN(C2=O)[C@@H](CC2CCCCC2)C(=O)N(C)CC(=O)N[C@@H](CCc2ccc(C(F)(F)F)c(OC)c2)C(=O)N2C[C@@H](C)C[C@H]2C(=O)N(C)C2(CCC2)C(=O)N(C)[C@@H](C2CCCC2)C(=O)N(C)[C@H](C(=O)N(C)C)CC(=O)N1C", "note": "[PP2370]", "values": [
      {"measurement": "HRAS/KRAS (ratio of KD value with respect to HRAS to KD value with respect to KRAS)", "setting": "[1]", "result": "B (a compound having 3 or more and less than 10 is denoted as B)"},
      {"measurement": "NRAS/KRAS (ratio of KD value with respect to NRAS to KD value with respect to KRAS)", "setting": "[2]", "result": "B (a compound having 3 or more and less than 10 is denoted as B)"}
    ]},
    {"smiles": "CC[C@H](C)[C@@H]1NC(=O)[C@H](CC(C)C)N(C)C(=O)C[C@@H](C(=O)N(C)CC)N(C)C(=O)[C@H](C2CCCC2)N(C)C(=O)C2(CC(C)(C)C2)NC(=O)[C@@H]2C[C@@H](F)CN2C(=O)[C@H](CCc2cc(F)c(C(F)(F)F)c(F)c2)NC(=O)CN(C)C(=O)[C@H](Cc2ccc(C(F)(F)F)cc2)N2CC/C=C\\C[C@@H](C2=O)N(C)C(=O)CN(C)C1=O", "note": "[PP1694]", "values": [
      {"measurement": "HRAS/KRAS (ratio of KD value for HRAS to KD value for KRAS)", "setting": "[1]; KD ratio", "result": "A (a compound having 10 or more and less than 20 is denoted as A)"},
      {"measurement": "NRAS/KRAS (ratio of KD value for NRAS to KD value for KRAS)", "setting": "[2]; KD ratio", "result": "A (a compound having 10 or more and less than 20 is denoted as A)"}
    ]}
  ]
}
